# Data as given in patent US4267192A, “Method for treating inflammation” (priority 1980, dated 1981).
# How the values were obtained:
# prostaglandin synthetase = molecular target: T1, prostaglandin synthetase (Ovis aries, UniProt P05979); assay: in vitro prostaglandin synthetase activity assay (PGE2 formation from 14C-arachidonic acid); assay type: biochemical, sheep; design: microsomal fraction of sheep vesicles; from tissue; host or cells: sheep seminal vesicles, microsomal fraction (105,000×g precipitate); details: for cpm (× 1000), in vitro PGE2 biosynthesis: sheep seminal vesicle microsomes
# T1 sequence (P05979 25-600): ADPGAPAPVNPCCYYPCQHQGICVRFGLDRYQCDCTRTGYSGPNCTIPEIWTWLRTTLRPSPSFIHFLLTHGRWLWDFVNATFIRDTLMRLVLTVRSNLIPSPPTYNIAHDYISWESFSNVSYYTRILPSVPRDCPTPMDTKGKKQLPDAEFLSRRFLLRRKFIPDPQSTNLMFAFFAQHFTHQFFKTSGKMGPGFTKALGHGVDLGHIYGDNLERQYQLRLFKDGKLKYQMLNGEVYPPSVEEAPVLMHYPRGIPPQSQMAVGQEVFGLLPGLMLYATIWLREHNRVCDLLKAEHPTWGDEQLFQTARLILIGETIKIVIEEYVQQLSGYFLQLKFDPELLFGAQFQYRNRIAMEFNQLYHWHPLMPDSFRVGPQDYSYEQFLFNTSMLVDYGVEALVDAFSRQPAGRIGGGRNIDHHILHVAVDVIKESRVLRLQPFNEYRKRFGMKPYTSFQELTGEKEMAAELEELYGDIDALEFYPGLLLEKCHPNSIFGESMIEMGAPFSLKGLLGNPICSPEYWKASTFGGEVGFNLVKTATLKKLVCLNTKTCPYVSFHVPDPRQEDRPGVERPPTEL
# Experimental: Frozen sheep seminal vesicles are cleaned of fat and connective tissue and then minced. Ten grams of the minced tissue are homogenized in 20 ml. of 0.125 M Na-EDTA buffer, pH 8.3, employing polytron homogenizer. The homogenate is then centrifuged at 1,200×g. for 10 minutes and the resulting supernatant filtered through two layers of cheese cloth. The filtrate is then centrifuged at 10,000×g. for 20 minutes. The supernatant is then centrifuged at 105,000×g. for 1 hour. The precipitate is dissolved once with Na-EDTA buffer and recentrifuged at 105,000×g. for 1 hour. The final microsomal fraction is then dissolved in 1.0 ml. of Na-EDTA buffer and stored in a freezer.
# The incubation buffer medium (1.0 ml. total) consists of 500 μg of lyophilized bovine serum albumin, 5×10^-4 M hydroquinone, 1.0×10^-2 M reduced glutathione, 3×10^-6 M^14 C arachidonic acid (AA) in 0.02 ml. of methanol, 0.01 ml. of the tested drugs in methanol at the desired concentrations, and the microsomal fraction (1.2 mg. protein/ml. incubation medium). This medium is incubated for one hour at 37° C. At the end of this period, enzyme reaction is terminated by the addition of 0.25 ml. of 1 N HCl. 15 μg of non-radioactive Prostaglandin E2 (PGE2), Prostaglandin F2α (PGF2α) and AA (5 μg each) in an ethanol solution is then added to all of the acidified reaction mixtures. The reaction products are extracted with ethylacetate (2×2 ml.) and the total organic solution of 4 ml. is washed with 1.0 ml. of triple distilled water. 3.0 ml. of the total ethylacetate solution is removed and evaporated to dryness under nitrogen gas. The residue is then re-dissolvedin 50 μl. of 100% ethanol and spotted on silica gel GF plates and subjected to chromatograph. Only the organic phase of the ethyl acetate:water:iso-octane:acetic acid system (11:10:5:2) is used as solvent in the chromatography system.
# After exposure to iodine vapor, the PGE2 and AA spots are scraped from the TLC plate, put into separate vials, and mixed with 10.0 ml. of Instagel scintillation cocktail for counting in a Nuclear-Chicago Mark II liquid scintillation counter.
# Results are expressed as counts per minute (cpm), evidencing in vitro PGE2 biosynthesis.
# [1] = system: established adjuvant arthritis in rats; assay: established adjuvant arthritis, dosing on days 16, 17 and 18; details: rat
# Experimental: Polyarthritis is induced in groups of 6-10 Sprague-Dawley rats weighing between 180-220 g. by a subcutaneous injection into the right paw of dessicated Mycobacterium butyricum or tuberculosis (0.5 mg/0.1 ml.) suspended in light mineral oil. […] Both hind paw volumes (ml.) are measured by mercury plethysmograph on day 0 or at the time of injection of the complete adjuvant. Increases in paw volume (viz. edema) are determined for both paws on days 4 and 16. The change in body weight from day 0 to day 16 is also calculated. Statistical analysis of differences in paw edemas and body weight is performed by using the unpaired. Student's t-test.
# The changes in left paw edema are measured at the end of 19 days, 23 days and 30 days.
compound,measurement,setting,value
O=C(O)C=C1c2ccccc2C=Cc2ccccc21 [DCHA],"cpm (× 1000), in vitro PGE2 biosynthesis",prostaglandin synthetase; 30 μg/ml,6.6 ± .3 cpm (× 1000)
same,"cpm (× 1000), in vitro PGE2 biosynthesis",prostaglandin synthetase; 50 μg/ml,5.2 ± .4 cpm (× 1000)
same,"cpm (× 1000), in vitro PGE2 biosynthesis",prostaglandin synthetase; 60 μg/ml,5.1 ± .2 cpm (× 1000)
same,"cpm (× 1000), in vitro PGE2 biosynthesis",prostaglandin synthetase; 100 μg/ml,3.0 ± .1 cpm (× 1000)
same,"cpm (× 1000), in vitro PGE2 biosynthesis",prostaglandin synthetase; 120 μg/ml,3.3 ± .4 cpm (× 1000)
same,"cpm (× 1000), in vitro PGE2 biosynthesis",prostaglandin synthetase; 150 μg/ml,2.1 ± .3 cpm (× 1000)
same,"cpm (× 1000), in vitro PGE2 biosynthesis",prostaglandin synthetase; 200 μg/ml,2.0 ± .1 cpm (× 1000)
same,IC50,"prostaglandin synthetase; calculated from Table 6, read-out: 50% inhibitory concentration (converted)",259 µM
same,inhibitory effect on prostaglandin synthetase activity,prostaglandin synthetase; in words,does not have an appreciable inhibitory effect on prostaglandin synthetase activity
same,return to pretreatment or higher edema levels,"[1]; end of 30 days, 12 days after last dosing",no significant return to pretreatment or even higher edema levels
same,"% Change from Control, left paw edema (day 0-19)","[1]; oral 10 mg/kg, days 16, 17, 18",-20%
same,"% Change from Control, left paw edema (day 0-23)","[1]; oral 10 mg/kg, days 16, 17, 18",-15%
same,"% Change from Control, left paw edema (day 0-30)","[1]; oral 10 mg/kg, days 16, 17, 18",-21%
same,Increase in left paw edema ml. (day 0-19),"[1]; oral 10 mg/kg, days 16, 17, 18",0.78 ± 0.11 mL
same,Increase in left paw edema ml. (day 0-23),"[1]; oral 10 mg/kg, days 16, 17, 18",0.82 ± 0.13 mL
same,Increase in left paw edema ml. (day 0-30),"[1]; oral 10 mg/kg, days 16, 17, 18",1.20 ± 0.16 mL
same,"% Change from Control, left paw edema (day 0-19)","[1]; oral 30 mg/kg, days 16, 17, 18",-26%
same,"% Change from Control, left paw edema (day 0-23)","[1]; oral 30 mg/kg, days 16, 17, 18",-10%
same,"% Change from Control, left paw edema (day 0-30)","[1]; oral 30 mg/kg, days 16, 17, 18",-29%
same,Increase in left paw edema ml. (day 0-19),"[1]; oral 30 mg/kg, days 16, 17, 18",0.75 ± 0.11 mL
same,Increase in left paw edema ml. (day 0-23),"[1]; oral 30 mg/kg, days 16, 17, 18",0.87 ± 0.16 mL
same,Increase in left paw edema ml. (day 0-30),"[1]; oral 30 mg/kg, days 16, 17, 18",1.07 ± 0.17 mL
same,"% Change from Control, left paw edema (day 0-19)","[1]; oral 90 mg/kg, days 16, 17, 18",-42%
same,"% Change from Control, left paw edema (day 0-23)","[1]; oral 90 mg/kg, days 16, 17, 18",-24%
same,"% Change from Control, left paw edema (day 0-30)","[1]; oral 90 mg/kg, days 16, 17, 18",-32%
same,Increase in left paw edema ml. (day 0-19),"[1]; oral 90 mg/kg, days 16, 17, 18",0.59 ± 0.06 mL
same,Increase in left paw edema ml. (day 0-23),"[1]; oral 90 mg/kg, days 16, 17, 18",0.73 ± 0.10 mL
same,Increase in left paw edema ml. (day 0-30),"[1]; oral 90 mg/kg, days 16, 17, 18",1.03 ± 0.11 mL
same,effect on left paw edema of rats with established adjuvant arthritis,"[1]; oral, days 16, 17, 18",significant decrease in the left paw edema
